In patent publication US20230174545A1, “HETEROCYCLIC COMPOUNDS AS BET INHIBITORS” (Nuvation Bio Inc., priority 2020, published 2023):

How the values were obtained:
BRD4-1 = molecular target: T1, BRD4-1 (Homo sapiens, UniProt O60885); assay: Bromodomain and Extraterminal Domain (BET) binding assay (Alpha, Reaction Biology Corp.), BRD4-1; settings: protein 20 nM, ligand histone H4 peptide (1-21) K5/8/12/16Ac-biotin 20 nM
T1 construct: purchased Reaction Biology Corp
Description: (§1) The bromodomain binding assays are performed by Reaction Biology Corp., Malvern, Pa., USA (www.reactionbiology.com). The BET binding assays are conducted in 384 well microplates in assay buffer (50 mM HEPES-HCl, pH 7.5, 100 mM NaCl, 1 mg/ml BSA, 0.05% CHAPS, and 0.5% DMSO) with compounds added as DMSO stocks at a single concentration or with 10-point dose response titrations. BET protein or assay buffer are delivered to the appropriate wells of the microplate. Test compound is then delivered by acoustic technology via a Labcyte Echo550 liquid handler. The microplate is centrifuged for 5 min and pre-incubated for 30 min at RT with gentle shaking. The ligand (histone H4 peptide (1-21) K5/8/12/16Ac-biotin) is delivered and the microplate is again centrifuged for 5 min and allowed to incubate for 30 min at RT with gentle shaking. Donor beads are then added in the absence of light and the microplate is centrifuged and gently shaken. After 5 min, acceptor beads are added in the absence of light and the microplate is centrifuged and gently shaken in the dark for 60 min. The microplate is read using a Perkin Elmer EnSpire Alpha plate reader (λ Ex/λ Em=680/520-620 nm). Percent inhibition is calculated relative to positive and negative controls on a per plate basis. For titration experiments, IC50 values are determined by fitting the percent inhibition versus compound concentration. […]

BRD4-2 = molecular target: T2, BRD4-2 (Homo sapiens, UniProt O60885); assay: Bromodomain and Extraterminal Domain (BET) binding assay (Alpha, Reaction Biology Corp.), BRD4-2; settings: protein 130 nM, ligand histone H4 peptide (1-21) K5/8/12/16Ac-biotin 70 nM
T2 construct: purchased Reaction Biology Corp
Description: as §1

IC50 (BRD4-1) [nM]	IC50 (BRD4-2) [nM]	SMILES
2370	0.7	CCNC(=O)c1cc2c(=O)n(C)cc(-c3cc(C(C)(C)O)ccc3Oc3c(C)cc(F)cc3C)c2o1 [Compound 1, N-ethyl-7-(2-(4-fluoro-2,6-dimethylphenoxy)-5-(2-hydroxypropan-2-yl)phenyl)-5-methyl-4-oxo-4,5-dihydrofuro[3,2-c]pyridine-2-carboxamide]
4	3	CCNC(=O)c1cc2c(=O)n(C)cc(-c3cc(NS(=O)(=O)CC)ccc3Oc3ccc(F)cc3F)c2o1 [Compound 65, 7-(2-(2,4-difluorophenoxy)-5-(ethylsulfonamido)phenyl)-N-ethyl-5-methyl-4-oxo-4,5-dihydrofuro[3,2-c]pyridine-2-carboxamide]
